{
  "source": "patent US9814730B2",
  "about": "(FLAMINA HOLDING AG, priority 2013, dated 2017)",
  "tested_on": "autocrine HCG production in adult cells",
  "assay": "Inhibition of autocrine HCG production in adult cells (in vitro experiments)",
  "type": "cell-based, human",
  "details": "very low amount of active agent",
  "experimental": "Extrapolations of in vitro experiments indicate that already 0.1 mg to 2 mg per kg body weight and per year, preferably 0.5 mg to 1 mg per kg body weight and per year of the active agent are sufficient. However, as detailed below the dosage can be up to a factor 5 higher and can thus range between 0.1 mg to 10 mg per kg body weight and per year.",
  "data": [
    {"smiles": "C/C=C\\[C@]1(O)CC[C@H]2[C@@H]3CCC4=CC(=O)CCC4=C3[C@@H](c3ccc(N(C)C)cc3)C[C@@]21C", "note": "[RU534, Aglepristone]", "values": [
      {"measurement": "inhibition of autocrine HCG production", "result": "successfully achieved"}
    ]}
  ]
}
